Test results from patent publication US9580426B2, “Compounds that expand hematopoietic stem cells” (Novartis AG, priority 2008, dated 2017).
pEC50: −log10 of the molar value.

How the values were obtained:
human AHR = molecular target: T1, human AHR (Homo sapiens, UniProt P35869); assay: cell-based; type: cell-based
T1 construct: endogenous in cells; host or cells: unnamed human cells carrying an AHR-dependent luciferase reporter
T1 sequence (P35869 11-848): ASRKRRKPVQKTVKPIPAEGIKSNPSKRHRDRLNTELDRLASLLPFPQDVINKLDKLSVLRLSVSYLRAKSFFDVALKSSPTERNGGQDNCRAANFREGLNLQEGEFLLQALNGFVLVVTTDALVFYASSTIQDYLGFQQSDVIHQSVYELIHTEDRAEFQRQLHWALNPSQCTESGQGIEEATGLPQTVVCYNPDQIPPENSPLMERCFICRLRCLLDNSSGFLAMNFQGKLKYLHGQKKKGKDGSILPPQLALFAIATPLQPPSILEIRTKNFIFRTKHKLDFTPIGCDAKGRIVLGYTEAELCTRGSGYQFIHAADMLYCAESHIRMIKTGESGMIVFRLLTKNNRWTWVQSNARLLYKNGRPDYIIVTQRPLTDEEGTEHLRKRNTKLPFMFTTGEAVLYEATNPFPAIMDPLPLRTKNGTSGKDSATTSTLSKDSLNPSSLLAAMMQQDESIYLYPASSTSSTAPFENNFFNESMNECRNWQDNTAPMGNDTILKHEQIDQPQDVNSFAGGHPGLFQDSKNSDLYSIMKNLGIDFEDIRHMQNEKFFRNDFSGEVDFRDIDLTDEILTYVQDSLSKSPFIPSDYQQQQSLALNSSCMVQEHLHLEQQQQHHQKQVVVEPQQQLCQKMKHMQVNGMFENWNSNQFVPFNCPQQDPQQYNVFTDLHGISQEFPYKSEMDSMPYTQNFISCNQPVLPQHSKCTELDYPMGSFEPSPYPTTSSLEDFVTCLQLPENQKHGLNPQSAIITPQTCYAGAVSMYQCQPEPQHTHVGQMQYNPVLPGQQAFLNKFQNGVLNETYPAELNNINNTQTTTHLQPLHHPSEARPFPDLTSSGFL
Procedure: Further, the ability of Example 1 to block 2,3,7,8-tetrachlorodibenzo-p-dioxin (TCDD, dioxin)-mediated CYP1B1 mRNA expression by qPCR in mPB-derived CD34^+ cells was determined. Treatment with TCDD (3 nM) caused a 4.5-fold increase in the level of CYP1B1 mRNA compared with the vehicle control (0.01% toluene). […] To determine the effects of Example 1 in AHR transcription the ability of Example 1 to inhibit a dioxin-induced AHR dependent luciferase reporter gene assay was tested.

[1] = tested on: Primary adult CD34+ human hematopoietic stem cells (HSCs); assay: % CD34+ assay: HSC expansion screen, dose response; type: cell-based; settings: Homo sapiens, Hematopoietic stem cell; dose response 1 nM to 10 μM; total number and/or percent of CD34+ cells
Summary of the method: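 Human CD34+ cells, chiefly MACS-enriched from G-CSF-mobilized peripheral blood, were grown at 37° C., 5% CO2 in serum-free StemSpan with TPO, IL-6, Flt-3 ligand and SCF (50 ng/mL each), plus compound or DMSO. Cultures were kept at 10^4–5×10^5 cells/mL and assessed by flow cytometry for CD34 expression. EC50 came from a 1 nM–10 μM dose response.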

SMILES: CC(C)n1cnc2c(NCCc3ccc(O)cc3)nc(-c3csc4ccccc34)nc21 [Example 1, 4-(2-(2-(benzo[b]thiophen-3-yl)-9-isopropyl-9H-purin-6-ylamino)ethyl)phenol]
- pEC50 (human AHR): 6.90
- dioxin-induced AHR dependent transcription (human AHR; 1 μM, cells expressing human AHR): completely abolished
- agonist activity (induction of AHR dependent transcription) (human AHR; human cells): failed to induce AHR dependent transcription
- pEC50 [1]: 6.92
